{
  "source": "patent US10130624B2",
  "about": "“Pharmaceutical compositions of amlodipine and benazepril” (LUPIN LIMITED, priority 2005, dated 2018)",
  "test": "Preformulation compatibility study: amlodipine and benazepril blends, with or without excipients, at accelerated stability conditions; colour change and degradation products by HPLC",
  "format": "physicochemical",
  "details": "without any excipients",
  "procedure": "The studies were carried out by blending amlodipine & benazepril and then mixing with excipients in amounts intended to be used in the proposed compositions. For example, amlodipine:benazepril:diluent were blended in the ratio 0.7:1:10, amlodipine:benazepril:disintegrant were blended in the ratio 0.7:1:2, amlodipine:benazepril:binder were blended in the ratio 0.7:1:2, and amlodipine:benazepril:lubricant were blended in the ratio 0.7:1:0.5.",
  "data": [
    {"molecule": "CCOC(=O)[C@H](CCc1ccccc1)N[C@H]1CCc2ccccc2N(CC(=O)O)C1=O", "note": "[Benazepril alone, Benazepril]", "values": [
      {"measurement": "Related substances: Amlodipine impurity D", "setting": "Initial", "value": 0.000, "unit": "%"},
      {"measurement": "Related substances: Benazepril impurity C", "setting": "Initial", "value": 0.130, "unit": "%"},
      {"measurement": "Related substances: Benazepril impurity G", "setting": "Initial", "value": 0.060, "unit": "%"},
      {"measurement": "Related substances: Total impurities", "setting": "Initial", "value": 0.260, "unit": "%"},
      {"measurement": "Related substances: Amlodipine impurity D", "setting": "charged on stability, 3M", "value": 0.000, "unit": "%"},
      {"measurement": "Related substances: Benazepril impurity C", "setting": "charged on stability, 3M", "value": 0.143, "unit": "%"},
      {"measurement": "Related substances: Benazepril impurity G", "setting": "charged on stability, 3M", "value": 0.000, "unit": "%"},
      {"measurement": "Related substances: Total impurities", "setting": "charged on stability, 3M", "value": 0.267, "unit": "%"}
    ]}
  ]
}
